Data published in the supplement of paper PMC10307832.

Tests used:
Test in all cases: relative viability (nuclei count vs DMSO), 5 days (fraction); higher = more cells survive
[1] = compound: C1CC(C2=C(C1)C3=C(N2)C=CC(=C3)Cl)C(=O)N [Selisistat] + Cc1cc(Nc2cc(N3CCN(C)CC3)nc(Sc3ccc(NC(=O)C4CC4)cc3)n2)n[nH]1 [Tozasertib] (partner 0.1 µM)
Summary of the method: (§1)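 Relative viability equals treated-well nuclei counts divided by vehicle-well nuclei counts. Counts came from 4× images of lung cancer cell lines grown in 1536-well plates for 5 days after pin-tool dosing on the day after seeding. Dosing used one drug alone or a fixed anchor-drug dose plus five library-drug doses (not always all listed) in √10 steps, and values are medians of duplicate plates.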

[2] = compound: c1ccc2c(CCNc3ccc(Nc4ccncc4)cc3)c[nH]c2c1 [Serdemetan] + C[C@@H](Oc1cc(-c2cnn(C3CCNCC3)c2)cnc1N)c1c(Cl)ccc(F)c1Cl [Crizotinib] (partner 1 µM)
Summary of the method: as §1

[3] = compound: c1ccc2c(CCNc3ccc(Nc4ccncc4)cc3)c[nH]c2c1 [Serdemetan] + CC(C)C[C@H](NC(=O)[C@H](Cc1ccccc1)NC(=O)c1cnccn1)B(O)O [Bortezomib] (partner 0.002 µM)
Summary of the method: as §1

[4] = compound: C1CC(C2=C(C1)C3=C(N2)C=CC(=C3)Cl)C(=O)N [Selisistat] + COc1cc2c(Oc3ccc(NC(=O)C4(C(=O)Nc5ccc(F)cc5)CC4)cc3F)ccnc2cc1OCCCN1CCOCC1 [Foretinib] (partner 0.25 µM)
Summary of the method: as §1

UMC-11
relative viability ([1]; first compound 0.4 µM): 0.212 | relative viability ([1]; first compound 1.265 µM): 0.21 | relative viability ([1]; first compound 4 µM): 0.209 | relative viability ([1]; first compound 12.65 µM): 0.205 | relative viability ([1]; first compound 40 µM): 0.212 | relative viability ([2]; first compound 0.04 µM): 0.661 | relative viability ([2]; first compound 0.1265 µM): 0.591 | relative viability ([2]; first compound 0.4 µM): 0.577 | relative viability ([2]; first compound 1.265 µM): 0.482 | relative viability ([2]; first compound 4 µM): 0.358 | relative viability ([3]; first compound 0.04 µM): 0.614 | relative viability ([3]; first compound 0.1265 µM): 0.666 | relative viability ([3]; first compound 0.4 µM): 0.668 | relative viability ([3]; first compound 1.265 µM): 0.53 | relative viability ([3]; first compound 4 µM): 0.839 | relative viability ([4]; first compound 0.4 µM): 0.979 | relative viability ([4]; first compound 1.265 µM): 0.988 | relative viability ([4]; first compound 4 µM): 1.08 | relative viability ([4]; first compound 12.65 µM): 0.982 | relative viability ([4]; first compound 40 µM): 1.02
